Measurements from patent publication US12605364B2, “Methods of treating SARS-CoV-2 infections” (priority 2020, dated 2026).
Values after ≈ are worked out from the molar mass of the structure shown. Values joined by “and” are separate entries in the source; they are usually repeats but may differ in a detail not shown here. Equal entries are not always repeated.

System: SARS-CoV-2
Assay: Virus neutralization (VN) assay, scoring of SARS-CoV-2 cytopathic effects (CPE) in Vero E6 cells
Type: cell-based

O=C1CN(/N=C/c2ccc(-c3ccc([N+](=O)[O-])cc3)o2)C(O)=N1 [dantrolene]
CPE observed: no CPE was observed | Day 4 Read (CPE in wells): 3/3 wells had No CPE and 2/3 wells had >90% and 1/3 wells had >90% and 3/3 wells had >90% and 3/3 wells had sparce | Day 6 Read (CPE in wells): 3/3 wells had No CPE and 2/3 wells had >90% and 1/3 wells had >90% and 3/3 wells had >90% and 3/3 wells had sparce | anti-viral activity: showed anti-viral activity | cytopathic effects (indicating virus growth): No cytopathic effects | MIC (Severe acute respiratory syndrome coronavirus 2, read-out: minimum inhibitory concentration): 20 µM (≈ 6.29 µg/mL)
